Bridge positions count the residues as written; N and C are the ends. Square brackets hold non-standard residues; d marks the D form. Peptide text beside a SMILES is read from it. * marks the point of attachment. Biotin = O=C1N[C@H]2[C@H](CS[C@H]2CCCCC(=O)*)N1; S5 = C=CCCC[C@](C)(N)C(=O)O; βAla = NCCC(=O)O

The subject of data set [1] is Notch complex mediated transcription. As to the kind of experiment: Beta-lactamase gene under CSL responsive promoter in T-ALL cells (MOLT4). The following applies: decrease similar to RNAi against Notch or lactamase, FIG. 22. Format: cell-based. An excerpt:
T-ALL cells (MOLT4) harboring a beta-lactamase gene under the control of a CSL responsive promoter was used to study the effect of SAHN1 and SAHN11 on Notch complex mediated transcription.

A short description of data set [2]: Circular dichroism spectra, alpha helicity. Type of data set: physicochemical. The following applies: cross-linked vs not cross-linked, FIG. 5. The source says: FIG. 4 is a schematic drawing and detailed structural depiction of a modified polypeptide having the sequence of REM-G1 (SAHN1).
Data set [3] concerns KOPTK1 cells. Type of data set: cell-based. An excerpt:
The results of this analysis are show in FIG. 25.

The test system of data set [4] is Cells. Format: cell-based. How it is done:
Automated quantitative immunofluorescence was used to determine the intracellular distribution of fluorophore-labeled stapled alpha helices. Cells were incubated with FITC-conjugated peptides SAHN1, SAHN2, or SAHN6; or control. At 16 hours measurements of cellular fluorescence were taken using epifluorescence microscopy. The results of these studies are shown in FIG. 10 in which each circle represents an individual cell and each column represents a treatment condition.
Automated quantitative immunofluorescence was also used to determine the intracellular distribution of fluorophore-labeled stapled alpha helices. Cells were incubated with FITC-conjugated peptides SAHN1, or unstapled SAHN1.

The test system of data set [5] is gamma secretase resistant T-ALL cells (MOLT4). As to the kind of experiment: Apoptotic response in gamma secretase resistant T-ALL cells (MOLT4). Format: cell-based. The following applies: MOLT4, after 24 or 48 hours, FIG. 24. The source says:
The results of this analysis are show in FIG. 24.

For data set [6], the system named is ALL-SIL cells. Nature of the data set: Viability of ALL-SIL cells. Format: cell-based. The following applies: FIG. 15.
For data set [7], the target named is T1, ICN1 bound to immunoprecipitated MAML (Homo sapiens, UniProt P46531+Q06330).
T1 construct: endogenous in cells
As to the kind of experiment: Competition for ICN1 bound to immunoprecipitated MAML in T-ALL cellular lysates. Type of data set: binding. The following applies: FIG. 20 and 21.

In data set [8] the test system is HES1. Nature of the data set: HES1 expression in T-ALL cells (MOLT4). The following applies: FIG. 23. Type of data set: cell-based. An excerpt:
(§1) The results of this analysis are show in FIG. 23.

In data set [9] the test system is neoplastic murine lymphocytes derived from transgenic mice harboring human Notch mutations.
Data set [10] deals with T2, ICN and CSL (Homo sapiens, UniProt P46531+Q06330).
T2 construct: endogenous in cells; host or cells: KOPTK1 (T-ALL) cell lysates
As to the kind of experiment: Immunoprecipitation from T-ALL (KOPTK1) cell lysates. The following applies: FIG. 19. Type of data set: binding.

In data set [11] the test system is HEY1. As to the kind of experiment: HEY1 expression in T-ALL cells (MOLT4). Format: cell-based. The following applies: FIG. 23.
Source text: as §1

The test system of data set [12] is CSL-responsive reporter. As to the kind of experiment: CSL-responsive reporter in transfected MOLT4 cells. The following applies: FIG. 12. Type of data set: cell-based. The source says:
MOLT4 cells transfected with a CSL-responsive reporter were used to test whether stapled SAHN11 can interfere with Notch-mediated activation of transcription.

Data set [13] concerns MOLT4 cells. As to the kind of experiment: Viability of MOLT4 cells. Type of data set: cell-based. The following applies: FIG. 14 and 17.
The subject of data set [14] is TALL1 cells. As to the kind of experiment: Viability of TALL1 cells. Type of data set: cell-based. The following applies: FIG. 18.

T2 sequence (P46531 1754-2555 limits assumed): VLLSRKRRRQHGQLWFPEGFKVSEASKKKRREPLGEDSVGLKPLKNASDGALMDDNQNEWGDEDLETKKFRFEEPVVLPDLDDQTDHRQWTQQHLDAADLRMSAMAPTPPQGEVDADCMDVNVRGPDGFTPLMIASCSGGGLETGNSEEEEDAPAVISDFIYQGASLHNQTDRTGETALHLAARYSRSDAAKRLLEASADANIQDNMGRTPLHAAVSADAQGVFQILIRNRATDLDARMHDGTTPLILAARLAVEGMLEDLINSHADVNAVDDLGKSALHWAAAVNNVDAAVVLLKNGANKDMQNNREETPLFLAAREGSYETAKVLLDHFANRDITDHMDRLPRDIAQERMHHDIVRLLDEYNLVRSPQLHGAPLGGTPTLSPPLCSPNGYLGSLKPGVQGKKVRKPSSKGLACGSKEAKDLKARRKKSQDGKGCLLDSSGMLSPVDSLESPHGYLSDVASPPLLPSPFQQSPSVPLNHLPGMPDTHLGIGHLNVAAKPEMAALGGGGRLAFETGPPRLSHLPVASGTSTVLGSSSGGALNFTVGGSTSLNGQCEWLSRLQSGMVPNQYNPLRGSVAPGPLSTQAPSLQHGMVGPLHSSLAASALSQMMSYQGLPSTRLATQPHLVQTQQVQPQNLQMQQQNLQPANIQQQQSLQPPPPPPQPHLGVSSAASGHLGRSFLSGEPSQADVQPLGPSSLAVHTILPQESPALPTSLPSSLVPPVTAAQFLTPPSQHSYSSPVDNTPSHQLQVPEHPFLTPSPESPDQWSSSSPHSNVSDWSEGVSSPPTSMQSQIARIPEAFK
T2 sequence (Q06330 whole entry): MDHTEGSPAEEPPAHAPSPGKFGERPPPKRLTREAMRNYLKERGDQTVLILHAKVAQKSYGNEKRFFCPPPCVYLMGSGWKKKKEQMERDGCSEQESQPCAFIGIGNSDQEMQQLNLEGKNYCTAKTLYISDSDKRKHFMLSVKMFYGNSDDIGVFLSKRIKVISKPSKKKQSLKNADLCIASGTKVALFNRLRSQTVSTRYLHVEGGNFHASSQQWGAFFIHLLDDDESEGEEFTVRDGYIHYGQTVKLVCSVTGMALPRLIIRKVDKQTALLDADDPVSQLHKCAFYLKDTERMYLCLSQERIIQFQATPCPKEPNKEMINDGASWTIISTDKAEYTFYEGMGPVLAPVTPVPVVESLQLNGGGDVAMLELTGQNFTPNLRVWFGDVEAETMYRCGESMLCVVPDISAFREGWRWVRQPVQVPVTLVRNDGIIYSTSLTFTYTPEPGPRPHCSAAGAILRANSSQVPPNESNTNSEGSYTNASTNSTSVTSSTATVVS
T1 sequence (P46531 1754-2555 limits assumed): as the sequence (P46531 1754-2555 limits assumed) above
T1 sequence (Q06330 whole entry): as the sequence (Q06330 whole entry) above

In general, IC50 refers to the point on the concentration scale where inhibition reaches its midpoint. A higher IC50 goes with weaker potency in that assay. For the compound `CC[C@H](C)[C@H](NC(=O)[C@H](CCCNC(=N)N)NC(=O)[C@H](CCCNC(=N)N)NC(=O)[C@H](CCCNC(=N)N)NC(=O)[C@H](CC(C)C)NC(=O)[C@H](CCCNC(=N)N)NC(=O)[C@H](CCC(=O)O)NC(=O)CCNC(C)=O)C(=O)N[C@@]1(C)CCCC=CCCC[C@@](C)(C(=O)N[C@@H](Cc2c[nH]cn2)C(=O)N[C@@H](Cc2c[nH]cn2)C(=O)N[C@@H](CO)C(=O)N[C@H](C(N)=O)[C@@H](C)O)NC(=O)[C@H](CCCNC(=N)N)NC(=O)[C@H](CS)NC(=O)[C@H](CC(C)C)NC1=O` [SAHN1] (Ac-[βAla]ERLRRRI[S5]LCR[S5]HHST-NH2; staple 9-13), the “transcription from CSL responsive promoter (beta-lactamase)” value in data set [1] is “decreased transcription”. Further, the “alpha helical content (circular dichroism)” value in data set [2] is 96%. For the same compound, in data set [3], the IC50 came out at 8 µM. Moreover, the “viability of KOPTK1 cells” value in data set [3] (FIG. 16) is on record as “reduced the viability of KOPTK1 cells”. For the same compound, in data set [4], the “effect of stapling on intracellular passage” value is on record as “stapling of the peptide did not, in this instance, appear to impact intracellular passage” and the “intracellular passage (cellular fluorescence)” value is reported as “exhibited significant intracellular passage”. Moreover, the apoptotic response result in [5] is reported as “induces an apoptotic response”. Further, the “viability of ALL-SIL cells” value in data set [6] is recorded as “reduced the viability of ALL-SIL cells”. The “competing away ICN1 bound to immunoprecipitated MAML” value in [7] is “can compete away ICN1”. Moreover, the “expression of HES1” value in [8] is reported as “decrease expression of HES1”. In addition, the “cytotoxicity to neoplastic murine lymphocytes” value in [9] is given as “is cytotoxic to neoplastic murine lymphocytes”. In addition, the “pull down of both ICN and CSL” value in data set [10] is “can pull down both ICN and CSL”. Besides, in data set [11], the “expression of HEY1” value was “decrease expression of HES1 and HEY1”.
For `CC[C@H](C)[C@H](NC(=O)[C@H](CCCNC(=N)N)NC(=O)[C@H](CCCNC(=N)N)NC(=O)CCNC(=O)[C@H](CCCCNC(=O)CCCC[C@@H]1SC[C@@H]2NC(=O)N[C@@H]21)NC(C)=O)C(=O)N[C@@H](CCC(=O)O)C(=O)N[C@@H](CC(C)C)C(=O)N[C@@H](CS)C(=O)N[C@@H](CCCNC(=N)N)C(=O)N[C@@H](CCCNC(=N)N)C(=O)N[C@@H](Cc1c[nH]cn1)C(=O)N[C@@H](Cc1c[nH]cn1)C(=O)N[C@@]1(C)CCCC=CCCC[C@@](C)(C(=O)N[C@@H](CCCNC(=N)N)C(=O)N[C@@H](Cc2ccc(O)cc2)C(=O)N[C@@H](CCC(=O)O)C(=O)N[C@@H](C)C(=O)N[C@H](C(N)=O)C(C)C)NC(=O)[C@H](CCC(=O)O)NC(=O)[C@H](CS)NC(=O)[C@H]([C@@H](C)O)NC1=O` [SAHN11] (Ac-K(Biotin)[βAla]RRIELCRRHH[S5]TCE[S5]RYEAV-NH2; staple 13-17; N-terminus assumed), in data set [1], the “transcription from CSL responsive promoter (beta-lactamase)” value is reported as “decreased transcription”. For the same compound, the “expression of the CSL-responsive reporter” value in data set [12] is listed as “reduced expression of the CSL-responsive reporter in a dose-dependent manner”. Moreover, the “viability of MOLT4 cells” value in data set [13] is recorded as “reduced the viability of MOLT4 cells”. Moreover, the “viability of TALL1 cells” value in [14] is listed as “reduced the viability of TALL1 cells”. Also, the “pull down of both ICN and CSL” value in data set [10] is “can pull down both ICN and CSL”.

These data come from patent publication US9074009B2, “Stabilized MAML peptides and uses thereof” (Dana-Farber Cancer Institute, Inc., priority 2006, dated 2015).
